Legend:
Assay in all cases: cell proliferation assay
Type in all cases: cell-based
BCR-ABL1 [1] = conditions: BCR-ABL1-positive cells; proliferation read-out; stated gain
BCR-ABL1 [2] = conditions: BCR-ABL1-positive cells; proliferation read-out
BCR-ABL1 [3] = conditions: BCR-ABL1-positive cells; proliferation read-out; stated gain; remark: listed apart in the source
BCR-ABL1 [4] = conditions: BCR-ABL1-positive cells; proliferation read-out; stated gain; remark: listed apart in the source

Structure (SMILES): Cc1ccc(C(=O)NNC(=O)c2c(C)cccc2Cl)cc1C#Cc1cnc2ccccc2c1 [K0706]
- IC50 (BCR-ABL1 [1]): 154 nM
- IC50 (BCR-ABL1 [2]): 7 nM
- IC50 (BCR-ABL1 [3]): 165 nM
- IC50 (BCR-ABL1 [4]): 1967 nM
